Test results as given in patent US6103709A (priority 1998, dated 2000).

Tests used:
[1] = tested on: MAP-kinase p42^mapk in NB4 cells; assay: MAP-kinase activation (p42mapk phosphorylation) in NB4 cells; format: cell-based, human
Experimental: In order to determine whether MAP-kinase phosphorylation is specific and is altered by 1α,25(OH)2 D3, the time-dependent effects of 1α,25(OH)2 D3 on p42^mapk phosphorylation was examined using human acute promyelocytic leukemia cells (NB4). In this study, the NB4 cells, cultured in 10% charcoal-stripped fetal calf serum (FCS) medium, were treated with 1α,25(OH)2 D3 at 10^-8 M for various time periods. Cells were then extracted and the phosphorylated MAP-kinase was immunoprecipitated with anti-phosphotyrosine antibody and further analyzed by Western blot using the antibodies against p42^mapk.
The lysate was further processed for anti-phosphotyrosine immunoprecipitation. […] After transferring the proteins to the PVDF membrane, the membrane was further incubated with primary anti-p42^mapk antibodies that were (+) or were not (-) pre-exposed to MAP-kinase peptide.
This example describes assays used for measurement of MAP-kinase activity in NB4 cells.
Cell culture of NB4 cells
The cell line is characterized by a translocation involving chromosomes 15 and 17, which is typical of the classical form of APL-M3 in the French-American-British [FAB] classification. NB4 cells were cultured in DMEM/F12 medium with 10% FCS at 5% CO2 balanced air and were routinely passaged as suspension cultures and only passages 8 to 20 were used for each assay.
Immunoprecipitation of Tyrosine-Phosphorylated Proteins
NB4 cells were cultured in 60-mm diameter dishes and treated with 1,25(OH)2 D3 or analogs in 4 ml of DMEM/F12 containing 10% charcoal-stripped FCS.
Insoluble material was removed in a microcentrifuge at 14,000 rpm for 10 min. Protein concentration was determined with a protein assay kit (Bio-Rad Lab, Hercules, Calif.). For immunoprecipitation, the supernatant was incubated with bead-conjugated monoclonal anti-phosphotyrosine antibody overnight at 4° C. The immunoprecipitates containing the tyrosine-phosphorylated proteins were washed four times with freshly-prepared RIPA buffer and further eluted with 2× Laemmli gel buffer.
At this point, the samples were either stored at -20° C. for further use or processed via Western blots. Equal loading of MAP-kinase protein was determined by running the Western blots using polyclonal anti-p42^mapk antibody. For this purpose, samples were aliquoted from each cell extract before immunoprecipitation.
SDS Gel Electrophoresis and Western blot
The membrane was further immunoblotted using a rabbit anti-p42^mapk polyclonal antibody overnight at 4° C. followed by incubation with secondary horseradish peroxidase-conjugated mouse anti-rabbit antibody for 1 hr at 25° C. The phosphorylated MAP-kinase bands were then visualized by enhanced chemiluminescence (ECL). A Ultrascan LX Laser Densitometer (LKB, Bromma, Sweden) scanned the density of the immuno-phosphoprotein bands. The results were normalized by protein loading and further plotted as percent of control of the band density.

[2] = tested on: chloride channels in ROS 17/2.8 cells; conditions: 1 nM HL in the bath; 1α,25(OH)2 D3 5 nM or less; listed as 1β,25(OH)2 D3
Experimental: In each case, at least a 3-min period was allowed after the addition of the analog to the bath for currents to reach a stable amplitude value. […] Anion currents were isolated from inward Ba^2+ currents after blockade of Ca^2+ channels with 100 μM Cd^2+.

[3] = tested on: intestinal Ca2+ transport in perfused chick duodena (transcaltachia); assay: Transcaltachia assay (rapid stimulation of 45Ca2+ transport in perfused duodena); conditions: 1α,25(OH)2 D3 = 100
Experimental: Duodenal loops from normal, vitamin D-replete chicks were lumenally perfused with ^45 Ca^2+ (5 uCi/ml of buffer). To establish basal transport rates, celiac artery of controls were perfused with control medium for the first 20 min. The duodena were then either re-exposed to control medium containing the vehicle ethanol (0.005%, final concentration) through the celiac artery, or vascularly perfused with 300 pM or 650 pM agonist analogs JM or JN or with 650 pM of a control reference compound 1α,25(OH)2 D3. The venous effluent was collected at 2 min intervals for liquid scintillation spectrophotometry of the ^45 Ca^2+. […] Values represent mean ±SEM for n=4 in each group.
The data shown in FIG. 13 are the mean ±SEM from 4-5 duodena. […] Open circles represent the negative control receiving no treatment with 1α,25(OH)2 D3 or analog. […] Data represent the ratio of treated to basal values ±SEM extracted from a time-course plot (as in panel A) at 32 minutes.
This example describes the assay used for testing rapid response transcaltachia described in J. Biol. Chem, 268: 13811-13819 (1993).
White Leghorn cockerels (Hyline International, Lakeview, Calif.) were obtained on the day of hatch and maintained on a vitamin D-supplemented diet (1.0% calcium and 1.0% phosphorus; O. H. Kruse Grain and Milling, Ontario, Calif.) for 5-6 weeks to prepare normal vitamin D3 -replete chicks for use in the transcaltachia studies.
Measurements of ^45 Ca^2+ transport were carried out in perfused chick duodena. Normal vitamin D-replete chicks weighing approximately 500 g were anesthetized with 0.3 ml per 100 g Chloropent (Fort Dodge, Iowa), and the duodenal loop was surgically exposed. The celiac vein and blood vessels branching off from the celiac artery were ligated before cannulation of the celiac artery itself, and vascular perfusion was immediately initiated. Both the celiac artery and vein of the duodena were perfused with modified Grey's balanced salt solution (GBSS) +0.9 mM Ca which was oxygenated with 95% O2 and 5% CO2. A basal transport rate was established by perfusion with control medium for 20 minutes after the intestinal lumen was filled with ^45 Ca^2+. The tissue was then exposed to 1α,25(OH)2 D3 or analogs or reexposed to control medium for an additional 40 minutes. The vascular perfusate was collected at 2 min intervals during the last 10 min of the basal and during the entire treatment period. Duplicate 100 μl aliquots were taken for determination of the ^45 Ca^2+ levels by liquid scintillation spectrometry.

HL-60 cells = assay: Cell differentiation assay (NBT reduction); format: cell-based
Text: The cell differentiation assay is used for a determination of relative potency of the analog vis-a-vis the potency of the reference compound 1α,25(OH)2 D3 in promoting the cell differentiation or inhibiting the cell proliferation. The results of the cell differentiation assay are expressed as the effective dose-50 (ED-50) which is defined as 50% of the concentration required for a maximal response.
Cell Differentiation Assay
After 4 days of culture in a humidified atmosphere of 5% CO2 in air at 37° C., the dishes were shaken to loosen any adherent cells. All cells were then assayed for differentiation by NBT reduction assay and for proliferation by [^3 H]thymidine incorporation.
Superoxide production was assayed by nitro blue tetrazolium-reducing activity as follows.
The percentage of cells containing black formazan deposits was determined using a hemacytometer.

[4] = target: T1, nuclear receptor for 1α,25(OH)2 D3 [VDRnuc] (Gallus gallus, UniProt O42392); assay: Relative Competitive Index (steroid competition) assay, nuclear receptor VDRnuc; format: binding, chick; set-up: key to Nuclear 1α,25-D Receptor (RCI): % relative to 1α,25(OH)2D3 binding (RCI = 100%); conditions: for Nuclear 1α,25-D Receptor (RCI): RCI of 1α,25(OH)2 D3 = 100
T1 construct: VDRnuc receptor preparation from chick intestine mucosa; from tissue; host or cells: chick intestinal mucosa
T1 sequence (O42392 1-451): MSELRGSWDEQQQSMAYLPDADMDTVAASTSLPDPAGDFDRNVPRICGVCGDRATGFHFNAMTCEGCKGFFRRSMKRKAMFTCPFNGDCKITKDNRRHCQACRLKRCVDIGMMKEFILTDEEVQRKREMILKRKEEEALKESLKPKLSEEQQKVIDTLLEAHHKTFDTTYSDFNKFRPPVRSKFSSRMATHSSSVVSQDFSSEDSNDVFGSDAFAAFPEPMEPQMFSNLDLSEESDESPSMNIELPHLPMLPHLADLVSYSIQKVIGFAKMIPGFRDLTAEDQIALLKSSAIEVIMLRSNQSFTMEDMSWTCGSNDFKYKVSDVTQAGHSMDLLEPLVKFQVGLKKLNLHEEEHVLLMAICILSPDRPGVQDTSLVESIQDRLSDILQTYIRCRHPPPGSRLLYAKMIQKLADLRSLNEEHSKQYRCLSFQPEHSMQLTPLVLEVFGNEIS
Experimental: The ability of analogs to mediate genomic responses are directly determined by the ability of the analog in question to bind to the nuclear receptor for 1α,25(OH)2 D3 [VDRnuc ]. This ability is detected by the assay measuring Relative Competitive Index (RCI).
The assay is based upon the principles of a steroid competition assay. A fixed amount of [^3 H]1α,25(OH)2 D3 is mixed with increasing amounts of competitive analogs or the natural hormone, 1α,25(OH)2 D3, and incubated with a VDRnuc receptor preparation from chick intestine mucosa.
Ligand Receptor Competition Assay
This example describes a ligand receptor competitive assay used for determination of an analog's relative ability to bind to VDRnuc expressed as relative competitive index (RCI).
The relative affinity of nonradioactive 1α,25(OH)2 D3 and each analog to compete with [^3 H]1α,25(OH)2 D3 for binding to the VDRnuc of NB4 cells was carried out in vitro. The NB4 cells were collected from a fast growing stage and the cellular VDRnuc of 1α,25(OH)2 D3 were extracted from KTED buffer containing 10 mM Tris-HCl, pH 7.4, 300 mM KCl, 1 mM EDTA and 5 mM DTT. After sonication, the cell extract was further centrifuged at 500× g for 10 min. The supernatant was collected for use in a ligand-receptor binding assay.
In this assay, increasing concentrations (10^-10 to 10^-6 M) of nonradioactive 1α,25(OH)2 D3 or the tested analogs were incubated with NB4 cell extracts in the presence of a fixed saturating amount of 1 pmole of [^3 H]1α,25(OH)2 D3. The reciprocal of the percentage of maximal binding of [^3 H]1α,25(OH)2 D3 was then calculated and plotted as a function of the relative analog concentration versus [^3 H]1α,25(OH)2 D3. […] The competitive index value for each analog is then normalized to the competitive index value of the […], thereby generating the value of Relative Competitive Index (RCI) where the RCI for 1α,25(OH)2 D3 is defined as 100%.
The full description of the assay is found in Methods in Enzymology: Vitamins and Co-Enzymes, Vol. 67, 494-500 , Academic Press, NY(1980); Biochem. Biophys. Res. Commun., 91: 827-834 (1979); and Endocrinology, 139(2): 457-465 (1998).

rapid responses (VDRmem) = assay: Antagonist function (summary classification); conditions: Yes/No, Tables 1 and 6
Text: (§1) Table 6 identifies biological properties, such as genomic response, rapid response, agonist or antagonist function, binding of the analog to the vitamin binding protein (expressed as RCI), binding to the nuclear 1α,25(OH)2 D3 receptor (expressed as RCI) rapid response (expressed as % transcaltachia the rapid hormonal stimulation of intestinal calcium absorption) the classic vitamin D responses such as intestinal Ca^2+ absorption (ICA) and bone Ca^2+ mobilizing activity (BCM) determined in vivo in a vitamin D-deficient chick, and cell differentiation (expressed as % ED50), an assessment of the ability to promote the nuclear response of cell differentiation.

VDRnuc = assay: Genomic response (summary classification); conditions: Yes/No, Tables 1 and 6
Text: as §1

VDRmem = assay: Rapid response (summary classification); conditions: Yes/No, Tables 1 and 6
Text: as §1

| SMILES | Nuclear 1α,25-D Receptor (RCI) [4] | Antagonist (rapid responses (VDRmem)) | Genomic Response (VDRnuc) | Rapid Response (VDRmem) | other results |
| --- | --- | --- | --- | --- | --- |
| CC1=C(/C=C\C2=CCC[C@]3(C)[C@@H]([C@H](C)CCCC(C)(C)O)CC[C@@H]23)C[C@@H](O)C[C@@H]1O [HF] | – | – | – | – | activation of MAP-kinase versus 1α,25(OH)2 D3 ([1]; 1 minute): more than 1α,25(OH)2 D3; activation of MAP-kinase versus 1α,25(OH)2 D3 ([1]; 5 minute): only slightly less active |
| C=C1/C(=C\C=C2/CCC[C@]3(C)[C@@H]([C@H](C)CCCC(C)(C)O)CC[C@@H]23)C[C@@H](O)C[C@H]1O [Analog HL, 1β,25-dihydroxyvitamin D3] | – | – | – | – | antagonism of 1α,25(OH)2 D3-stimulated chloride channel opening [2]: significantly reduced |
| CC1=C(/C=C/C2=CCC[C@]3(C)[C@@H]([C@H](C)CCCC(C)(C)O)CC[C@@H]23)C[C@@H](O)C[C@@H]1O [JB] | – | – | – | – | Rapid Trans-Caltachia, relative to 1α,25(OH)2 D3 [3]: smaller than 5% |
| C=C1/C(=C\C=C2/CCC[C@]3(CO)[C@@H]([C@H](C)CCCC(C)(C)O)CC[C@@H]23)C[C@@H](O)C[C@@H]1O [HS] | 25 | No | Yes | Yes | potency at promoting cell differentiation versus 1α,25(OH)2 D3 (HL-60 cells): about twenty times more potent; Binding to VDRnuc relative to 1α,25(OH)2 D3 (RCI) ([4]; 1α,25(OH)2 D3 = 100%, FIG. 8: chick intestine mucosa): 25% |
| C=C1/C(=C\C=C2/CCC[C@]3(C)[C@@H]([C@H](C)C#Cc4cccc(C(C)(C)O)c4)CC[C@@H]23)C[C@@H](O)C[C@@H]1O [IB] | 1 | No | Yes | Yes | – |
